Results as given in the Deep4Chem optical property database.

Test: photoluminescence quantum yield (fraction); solvent given as SMILES

## CC(C)[Si](C#Cc1c2cc3ccccc3cc2c(C#C[Si](C(C)C)(C(C)C)C(C)C)c2cc3ccccc3cc12)(C(C)C)C(C)C
In ClCCl
  photoluminescence quantum yield: 0.15

## CCCCC1(c2ccccc2)Nc2c(-c3ccc(N(C)C)cc3)ccc(-c3ccc(N(C)C)cc3)c2N=C1c1ccccc1 (configuration not stated)
In ClC(Cl)Cl
  photoluminescence quantum yield: 0.16

## COc1ccc(C2=Cc3ccccc3P2(=O)c2ccccc2)cc1 (configuration not stated)
In C1CCOC1
  photoluminescence quantum yield: 0.41
In ClCCl
  photoluminescence quantum yield: 0.82

## CCC1=C(C)C2=C(c3cc(C(=O)Cl)cc(C(=O)Cl)c3)c3c(C)c(CC)c(C)n3[B-](F)(F)[N+]2=C1C
In C1CCOC1
  photoluminescence quantum yield: 0.61
In CC#N
  photoluminescence quantum yield: 0.22
In CN(C)C=O
  photoluminescence quantum yield: 0.39
In Cc1ccccc1
  photoluminescence quantum yield: 0.57
In ClC(Cl)Cl
  photoluminescence quantum yield: 0.53

## CCn1c2ccccc2c2cc(/C=C/c3cc(/C=C/c4ccc5c(c4)c4ccccc4n5CC)ncn3)ccc21
In C1CCOC1
  photoluminescence quantum yield: 0.25
In CCOC(C)=O
  photoluminescence quantum yield: 0.25
In CN(C)C=O
  photoluminescence quantum yield: 0.42
In Cc1ccccc1
  photoluminescence quantum yield: 0.19
In ClCCl
  photoluminescence quantum yield: 0.29

## CCCCN1c2ccccc2Sc2cc(/C=C/C3=Nc4ccc5ccccc5c4C3(C)C)ccc21
In C1CCCCC1
  photoluminescence quantum yield: 0.09
In C1CCOC1
  photoluminescence quantum yield: 0.12
In C1COCCO1
  photoluminescence quantum yield: 0.17
In CC#N
  photoluminescence quantum yield: 0.05
In CC(C)=O
  photoluminescence quantum yield: 0.06
In CC(C)O
  photoluminescence quantum yield: 0.07
In CCOC(C)=O
  photoluminescence quantum yield: 0.13
In CCOCC
  photoluminescence quantum yield: 0.14
In CO
  photoluminescence quantum yield: 0.01
In CS(C)=O
  photoluminescence quantum yield: 0.09
In Cc1ccccc1
  photoluminescence quantum yield: 0.18
In ClCCl
  photoluminescence quantum yield: 0.11

## Cc1ccc(C(=O)NN2C3=C(CC4=C2CCCC4=O)C(=O)CCC3)cc1
In C1CCOC1
  photoluminescence quantum yield: 0.31
In CC#N
  photoluminescence quantum yield: 0.55
In CC(C)=O
  photoluminescence quantum yield: 0.32
In CCCCCO
  photoluminescence quantum yield: 0.5
In CO
  photoluminescence quantum yield: 0.4
In ClC(Cl)Cl
  photoluminescence quantum yield: 0.77
In ClCCl
  photoluminescence quantum yield: 0.44

## Oc1ccccc1-c1nc(-c2ccccc2)c(-c2ccccc2)[nH]1
In CO
  photoluminescence quantum yield: 0.25

## FC(F)(F)c1ccc(-n2c(-c3ccc(N(c4ccc(-c5ccc(N(c6ccc(-c7nc8c9ccccc9c9ccccc9c8n7-c7ccc(C(F)(F)F)cc7)cc6)c6ccc(-c7nc8c9ccccc9c9ccccc9c8n7-c7ccc(C(F)(F)F)cc7)cc6)cc5)cc4)c4ccc(-c5nc6c7ccccc7c7ccccc7c6n5-c5ccc(C(F)(F)F)cc5)cc4)cc3)nc3c4ccccc4c4ccccc4c32)cc1
In ClCCl
  photoluminescence quantum yield: 0.383

## CCn1c2cc(OC)ccc2c2c3nsnc3c3c4ccc(OC)cc4n(CC)c3c21
In CN(C)C=O
  photoluminescence quantum yield: 0.49
In Cc1ccccc1
  photoluminescence quantum yield: 0.41
In ClCCl
  photoluminescence quantum yield: 0.44

## C[N+]1=C(/C=C/C=C2/N(CCC[N+](C)(C)C)c3ccc(S(=O)(=O)[O-])cc3C2(C)C)C(C)(C)c2ccccc21
In CS(C)=O
  photoluminescence quantum yield: 0.1

## COC(=O)c1nc2c(N(C)C)nc(N(C)C)nc2n1Cc1ccccc1
In C1COCCO1
  photoluminescence quantum yield: 0.95
In CC#N
  photoluminescence quantum yield: 0.86
In CO
  photoluminescence quantum yield: 0.66
In ClCCl
  photoluminescence quantum yield: 0.9

## CCOc1cc(C=C2c3ccccc3-c3ccccc32)c(OCC)cc1C=C1c2ccccc2C=Cc2ccccc21
In C1CCOC1
  photoluminescence quantum yield: 0.00012

## C[N+]1=C(/C=C/C=C2/N(CCC[N+](C)(C)C)c3ccc(Br)cc3C2(C)C)C(C)(C)c2ccccc21
In CS(C)=O
  photoluminescence quantum yield: 0.11

## CC1(C)C(/C=C/C2=C(Oc3ccc(CCN=C=S)cc3)C(=C/C=C3/N(CCCS(=O)(=O)[O-])c4ccccc4C3(C)C)/CCC2)=[N+](CCCS(=O)(=O)[O-])c2ccccc21
In CO
  photoluminescence quantum yield: 0.07

## CCC1=C(C)C2=Cc3c4ccccc4c4n3[B-](c3ccncc3)(Oc3ccccc3-4)[N+]2=C1C (configuration not stated)
In CC#N
  photoluminescence quantum yield: 0.73
In CCCCCC
  photoluminescence quantum yield: 0.78
In Cc1ccccc1
  photoluminescence quantum yield: 0.7
In ClCCl
  photoluminescence quantum yield: 0.7

## c1ccc(-c2ccc(-c3ccc(N(c4ccccc4)c4ccccc4)cc3)c3nsnc23)cc1
In C1CCOC1
  photoluminescence quantum yield: 0.105
In CC(C)=O
  photoluminescence quantum yield: 0.01
In CCCCCC
  photoluminescence quantum yield: 0.492
In CCOCC
  photoluminescence quantum yield: 0.201

## N#Cc1cc(-c2ccc(/C=C/c3ccc(N(c4ccccc4)c4ccccc4)cc3)c(C#N)c2)ccc1/C=C/c1ccc(N(c2ccccc2)c2ccccc2)cc1
In ClCCl
  photoluminescence quantum yield: 0.37

## CC1=[N+]2C(=Cc3c4c(cn3[B-]2(F)F)-c2nc-4c(-c3ccccc3)c3ccc([nH]3)c(-c3ccccc3)c3nc(c(-c4ccccc4)c4ccc([nH]4)c2-c2ccccc2)C=C3)C(C)C1 (configuration not stated)
In ClCCl
  photoluminescence quantum yield: 0.04

## C(=C\c1cccc(/C=C/c2c3ccccc3cc3ccccc23)c1)/c1ccncc1
In C1CCOC1
  photoluminescence quantum yield: 0.6

## Cc1cc(-n2c3ccccc3c3cc4c(cc32)C2c3ccccc3C4c3ccccc32)c(C)cc1-c1nc(-c2ccccc2)nc(-c2ccccc2)n1
In Cc1ccccc1
  photoluminescence quantum yield: 0.46
In O=P(c1ccccc1)(c1ccccc1)c1ccccc1Oc1ccccc1P(=O)(c1ccccc1)c1ccccc1
  photoluminescence quantum yield: 0.3

## COc1ccc(-c2cc3ccccc3p2-c2ccccc2)cc1 (configuration not stated)
In C1CCOC1
  photoluminescence quantum yield: 0.09

## COc1ccc2[nH]cc(/C=C/C3=[NH+]c4cccc5cccc3c45)c2c1
In CO
  photoluminescence quantum yield: 0.0486

## F[B-]1(F)n2c(c3ccccc3c2-c2ccccc2)N=C2c3ccccc3C(c3ccccc3)=[N+]21
In ClCCl
  photoluminescence quantum yield: 0.14

## CCN(CC)c1ccc2n1[B-](F)(F)[N+]1=CC(/C=C/C(=O)OC(C)(C)C)=CC1=C2c1c(C)cc(C)cc1C
In ClCCl
  photoluminescence quantum yield: 0.26

## O=c1c2ccccc2n(-c2ccc(-c3ccc(-n4c5ccccc5c(=O)c5ccccc54)cc3)cc2)c2ccccc12
In ClCCl
  photoluminescence quantum yield: 0.31

## Cc1ccc2nc(-c3cccc4nc(C)[nH]c(=O)c34)oc2c1
In CN(C)C=O
  photoluminescence quantum yield: 0.076

## CCOC(=O)c1cc(C(=O)OCC)c2c(C)ccc(O)c2n1
In CCO
  photoluminescence quantum yield: 0.26

## Cc1ccc(-c2cnc3nn4ccccc4c3n2)cc1
In C1CCOC1
  photoluminescence quantum yield: 0.26

## O=C1Cc2ccc(cc2)CC(=O)Cc2ccc(c3nsnc23)C1
In C1CCCCC1
  photoluminescence quantum yield: 0.85
In CC#N
  photoluminescence quantum yield: 0.45
In ClC(Cl)Cl
  photoluminescence quantum yield: 0.68

## C(=C\c1nc2ccccc2s1)/c1ccc(-c2nc3c4cccnc4c4ncccc4c3[nH]2)cc1
In C1CCOC1
  photoluminescence quantum yield: 0.33
In CC#N
  photoluminescence quantum yield: 0.17
In CO
  photoluminescence quantum yield: 0.11
In ClCCl
  photoluminescence quantum yield: 0.25

## O=C1c2cccc3c(-n4c5ccccc5c5ccccc54)ccc(c23)C(=O)N1C1CCCCC1
In C1CCOC1
  photoluminescence quantum yield: 0.033
In CCCCCC
  photoluminescence quantum yield: 0.872
In ClC(Cl)Cl
  photoluminescence quantum yield: 0.21
In ClCCl
  photoluminescence quantum yield: 0.03

## CC(C)[Si]1(C(C)C)c2cc(C=C(C#N)C#N)ccc2-c2ccc(N(C)C)cc21
In C1CCCCC1
  photoluminescence quantum yield: 0.08
In CC#N
  photoluminescence quantum yield: 0.32
In CCO
  photoluminescence quantum yield: 0.16
In CCOCC
  photoluminescence quantum yield: 0.56
In CS(C)=O
  photoluminescence quantum yield: 0.23
In ClCCl
  photoluminescence quantum yield: 0.56
In c1ccccc1
  photoluminescence quantum yield: 0.36

## CCCCC(CC)Cn1c2cc(C#N)ccc2c2cc(-c3ccc(N(c4ccccc4)c4ccccc4)cc3)c(C#N)cc21 (configuration not stated)
In ClCCl
  photoluminescence quantum yield: 0.31

## COc1ccc2oc(-c3cc4cc(OC)ccc4oc3=O)cc2c1
In CS(C)=O
  photoluminescence quantum yield: 0.16

## Cc1ccc(-c2c3nc(c(-c4ccc(C)cc4)c4ccc([nH]4)c(-c4ccc(OC(=O)C(C)c5ccc(-c6ccccc6)c(F)c5)cc4)c4nc(c(-c5ccc(C)cc5)c5ccc2[nH]5)C=C4)C=C3)cc1 (configuration not stated)
In ClCCl
  photoluminescence quantum yield: 0.131

## CC1=C2C=CC(C)=[N+]2[B-](F)(F)n2cccc21
In CCCCCC
  photoluminescence quantum yield: 0.96
In CO
  photoluminescence quantum yield: 1
In ClCCl
  photoluminescence quantum yield: 0.89

## COc1ccc(/C=C/c2nc(/C=C/c3ccc(N(C)C)cc3)cc(/C=C/c3ccc(N(c4ccccc4)c4ccccc4)cc3)n2)cc1
In ClCCl
  photoluminescence quantum yield: 0.68

## C/C(=C\c1ccccc1)c1nc2ccccc2o1
In C1CCCCC1
  photoluminescence quantum yield: 0.007
In CO
  photoluminescence quantum yield: 0.002

## CCN1/C(=C/C=C/C2=[N+](C)c3ccccc3C2(C)C)C(C)(C)c2ccccc21
In CS(C)=O
  photoluminescence quantum yield: 0.07

## CCCCc1cc(-c2cccc(COC)c2)oc1-c1cccc(-c2cc(CCCC)c(-c3cccc(-c4cc(CCCC)c(-c5cccc(-c6oc(-c7cccc(-c8oc(-c9cccc(-c%10oc(-c%11cccc(COC)c%11)cc%10CCCC)c9)cc8CCCC)c7)cc6CCCC)c5)o4)c3)o2)c1
In ClC(Cl)Cl
  photoluminescence quantum yield: 0.54

## COc1ccc(C2=C3C=CC(=[N+](C)C)C=C3[Si](C)(C)c3cc(N(C)C)ccc32)c(C)c1
In O
  photoluminescence quantum yield: 0.29

## [O-][n+]1c(/C=C/C=C/c2ccccc2)nc(N2CCOCC2)c2c1CCCC2
In ClCCl
  photoluminescence quantum yield: 0.06

## C(=C\c1ccc(-n2c3ccccc3c3ccccc32)cc1)/c1ccc(-c2ccc(/C=C/c3ccc(-n4c5ccccc5c5ccccc54)cc3)cc2)cc1
In Cc1ccccc1
  photoluminescence quantum yield: 0.89
In c1ccc2c(c1)c1ccccc1n2-c1ccc(-c2ccc(-n3c4ccccc4c4ccccc43)cc2)cc1
  photoluminescence quantum yield: 0.98

## C#CCn1c2ccccc2c2cc(/C=C/c3cc(C)c4n3[B-](F)(F)[N+]3=C(C)C=C(C)C3=C4c3ccc(I)cc3)ccc21
In CC#N
  photoluminescence quantum yield: 0.77
In CS(C)=O
  photoluminescence quantum yield: 0.72
In ClC(Cl)Cl
  photoluminescence quantum yield: 0.66

## N#Cc1ccc(C#Cc2ccccc2C#N)cc1
In ClC(Cl)Cl
  photoluminescence quantum yield: 0.452

## CC1(C)C(/C=C/c2cc3ccc(O)cc3oc2=O)=[N+](CCCS(=O)(=O)[O-])c2ccc3c(S(=O)(=O)O)cc(S(=O)(=O)O)cc3c21
In CCO
  photoluminescence quantum yield: 0.014
In CS(C)=O
  photoluminescence quantum yield: 0.025
In O
  photoluminescence quantum yield: 0.027

## Cc1ccc(C(=O)/N=c2\oc3cccc4c5c(-c6ccccc6)oc6cccc(c(c2-c2ccccc2)c34)c65)cc1
In ClC(Cl)Cl
  photoluminescence quantum yield: 0.17

## CCOC(=O)CSc1nc2c(c(C#N)c1C#N)CCCCCC2
In c1ccccc1
  photoluminescence quantum yield: 0.039

## CC(C)[Si](C#Cc1c2cc3ccccc3cc2c(C#C[Si](C(C)C)(C(C)C)C(C)C)c2nc3c(nc12)C1c2ccccc2C3c2ccccc21)(C(C)C)C(C)C
In CCCCCC
  photoluminescence quantum yield: 0.54

## c1ccc(/C(=C(\c2ccccc2)c2ccccc2-c2ccc(-c3ccccc3)cc2)c2ccccc2-c2ccc(-c3ccccc3)cc2)cc1
In C1CCOC1
  photoluminescence quantum yield: 0.32

## Cc1cnc(NC(=O)C2=C([O-])c3ccccc3S(=O)(=O)N2C)s1
In CC#N
  photoluminescence quantum yield: 0.00144
In CCCCO
  photoluminescence quantum yield: 0.0114
In CCCO
  photoluminescence quantum yield: 0.00864
In CCO
  photoluminescence quantum yield: 0.00427
In CO
  photoluminescence quantum yield: 0.00252

## Cc1c(COC(=O)Cc2ccccc2)n2c(OCC(=O)Cc3ccccc3)c(C)c(=O)n2c1=O
In CCO
  photoluminescence quantum yield: 0.836
